From US5536750A, “Inhibitors of farnesyl-protein transferase” (Merck & Co., Inc., priority 1994, dated 1996)

Legend:
[1] = test system: Ras farnesylation (viral Ha-ras p21) in the v-ras cell line; test: In vivo ras farnesylation assay in the v-ras cell line; format: cell-based; details: v-ras cells; 4 hours at 37° C. then additional 20 hours with [35S]methionine; read-out: IC50, inhibition of Ras farnesylation in the v-ras cell line
Protocol: The cell line used in this assay was the v-ras line, which expressed viral Ha-ras p21. The assay was performed essentially as described in DeClue, J. E. et. al., Cancer Research 51:712-717, (1991). Cells in 10 cm dishes at 50-75% confluency were treated with the test s compound (final concentration of solvent, methanol or dimethyl sulfoxide, was 0.1%). After 4 hours at 37° C., the cells were labelled in 3 ml methionine-free DMEM supplemented with 10% regular DMEM, 2% fetal bovine serum and 400 μCi[^35 S]methionine (1000 Ci/mmol). After an additional 20 hours, the cells were lysed in 1 ml lysis buffer (1% NP40/20 mM HEPES, pH 7.5/5 mM MgCl2 /1 mM DTT/10 μg/ml aprotinen/2 μg/ml leupeptin/2 μg/ml antipain/0.5 mM PMSF) and the lysates cleared by centrifugation at 100,000 × g for 45 min. Aliqouts of lysates containing equal numbers of acid-precipitable counts were bought to 1 ml with IP buffer (lysis buffer lacking DTT) and immunoprecipitated with the ras-specific monoclonal antibody Y13-259 (Furth, M. E. et. al., J. Virol. 43:294-304, (1982)). Following a 2 hour antibody incubation at 4° C., […] of a 25% suspension of protein A-Sepharose coated with rabbit anti rat IgG was added for 45 min. […]

Ras farnesylation = details: Hancock et al., Casey et al., Schafer et al.; cited from earlier work
Bovine FPTase = biological target: T1, Bovine FPTase (Bos taurus, UniProt P29702+P49355); test: In vitro inhibition of ras farnesyl transferase, partially purified bovine FPTase, Ras-CVLS and [3H]-FPP; format: biochemical; details: 650 nM Ras-CVLS, pH 7.4, 31° C., 60 min, read-out: IC50, inhibition of RAS farnesylation (concentration giving 50% inhibition of FTase)
T1 construct: Partially purified bovine FPTase; from tissue
Protocol: Assays of farnesyl-protein transferase. Partially purified bovine FPTase and Ras peptides (Ras-CVLS, Ras-CVIM and RAS-CAIL) were prepared as described by Schaber et al., J. Biol. Chem. 265:14701-14704 (1990), Pompliano, et al., Biochemistry 31:3800 (1992) and Gibbs et at., PNAS U.S.A. 86:6630-6634 (1989), respectively. Bovine FPTase was assayed in a volume of 100 μl containing 100 mM N-(2-hydroxy ethyl) piperazine-N'-(2-ethane sulfonic acid) (HEPES), pH 7.4, 5 mM MgCl2, 5 mM dithiothreitol (DTT), […] [^3 H]-farnesyl diphosphate ([^3 H]-FPP; […], New England Nuclear), 650 nM Ras-CVLS and 10 μg/ml FPTase at 31° C. for 60 min. Reactions were initiated with FPTase and stopped with 1 ml of 1.0M HCL in ethanol. Precipitates were collected onto filter-mats using a TomTec Mach II cell harvestor, washed with 100% ethanol, dried and counted in an LKB β-plate counter. The assay was linear with respect to both substrates, FPTase levels and time; less than 10% of the [ ^3 H]-FPP was utilized during the reaction period. Purified compounds were dissolved in 100% dimethyl sulfoxide (DMSO) and were diluted 20-fold into the assay. Percentage inhibition is measured by the amount of incorporation of farnesyl in the presence of the test compound when compared to the amount of incorporation in the absence of the test compound.

Human FPTase = biological target: T2, Human FPTase (Homo sapiens, UniProt P49354+P49356); test: In vitro inhibition of ras farnesyl transferase, recombinant human FPTase, Ras-CVIM and [3H]-FPP; format: biochemical; details: 100 nM Ras-CVIM, 30 min, read-out: IC50, inhibition of RAS farnesylation (concentration giving 50% inhibition of FTase)
T2 construct: made in house

Row | Structure (SMILES) | IC50 [1] [µM] | Inhibition of Ras farnesylation in vivo (Ras farnesylation) | also measured
1 | CC[C@H](C)[C@@H](C(=O)N[C@H]1CCOC1=O)N(C)C[C@@H](NC[C@@H](N)CS)[C@@H](C)CC [N-[2(S)-(2(R)-Amino-3-mercaptopropylamino)-3(S)-methylpentyl]-N-methyl-isoleucyl-homoserine lactone] | 50 | – | –
2 | CC[C@H](C)[C@@H](C(=O)N[C@@H](CCSC)C(=O)OC)N(C)C[C@@H](NC[C@@H](N)CS)[C@@H](C)CC [N-[2(S)-(2(R)-amino-3-mercaptopropylamino)-3(S)-methyl-pentyl]-N-methyl-isoleucyl-methionine methyl ester] | 5 | – | –
3 | CC[C@H](C)C(=O)O[C@H]1CCC=C2C=C[C@H](C)[C@H](CC[C@@H]3C[C@@H](O)CC(=O)O3)[C@H]21 [compactin] | – | Inhibition of Ras farnesylation in vivo has been demonstrated | –
4 | CC[C@H](C)C(=O)O[C@H]1C[C@@H](C)C=C2C=C[C@H](C)[C@H](CC[C@@H]3C[C@@H](O)CC(=O)O3)[C@H]21 [lovastatin] | – | Inhibition of Ras farnesylation in vivo has been demonstrated | –
5 | CC[C@H](C)[C@@H](C(=O)N[C@@H](CCO)C(=O)O)N(C)C[C@@H](NC[C@@H](N)CS)[C@@H](C)CC [N-[2(S)-(2(R)-Amino-3-mercaptopropylamino)-3(S)-methylpentyl]-N-methyl-isoleucyl-homoserine] | – | – | IC50 (Bovine FPTase): 72 nM
6 | CC[C@H](C)[C@@H](C(=O)N[C@@H](CCSC)C(=O)O)N(C)C[C@@H](NC[C@@H](N)CS)[C@@H](C)CC [N-[2(S)-(2(R)-amino-3-mercaptopropylamino)-3(S)-methyl-pentyl]-N-methyl-isoleucyl-methionine] | – | – | IC50 (Human FPTase): 20 nM
